Data set [1] has as its system Balb C mice. Briefly: hair-growth activity after DHT treatment. It is filed as in vivo. The following applies: observed on day 19 after hair removal; DHT 8 days, then 10 days treatment or none. An excerpt: The hairs of the back portions of Balb C mice were removed and a hair loss-inducing substance, dihydrotestosterone (DHT, TCI Inc.) was applied for 8 days to induce […] stage before the proliferation of kerationcytes.

For data set [2], the system named is hyaluronic acid. As to the kind of experiment: hyaluronic acid level in HaCaT cells (Hyaluronic acid ELISA kit). The following applies: 1 μmole, FIG. 9. It is filed as cell-based, human. The method, then:
(§1) Furthermore, HaCaT cell line was treated with the acetyl-decapeptide of this invention (1 μg/ml) and the level of procollagen, one of indicators to show the improvement in skin wrinkle, was examined (FIG. 8). The level of procollagen was measured using Procollagen ELISA kit (Takara). For verifying effects on levels of laminin and hyaluronic acid, another indicator representing the improvement in skin wrinkle, HaCaT cell line was incubated with the acetyl-decapeptide of this invention (1 μmole) and levels of laminin and hyaluronic acid were measured using Laminin ELISA kit (CHEMICON, USA) and Hyaluronic acid ELISA kit (Echelon Biosciences Inc, USA), respectively (FIG. 9).
Background: In an ELISA, binding on a coated surface is turned into a signal by an enzyme label.

In data set [3] the test system is 3T3 fibroblast. Briefly: [3H]-thymidine incorporation in 3T3 fibroblast. It is filed as cell-based. The following applies: 3T3 cells, 2 ng/ml serially diluted two-fold, FIG. 4. The method, then: The biological activities of the purified acetyl-decapepetide of Example 10 were evaluated using 3T3 fibroblast (The Korean Cell Line Bank) according to Rizzino et al method to measure [^3H]-thymidine incorporation (Rizzino, et al. Cancer Res., 48:4266 (1988)). 3T3 cells were cultured in 250 ml-flasks containing EMEM (Eagle's minimal essential media, Gibco, U.S.A.) supplemented with […] (fetal bovine serum). 3T3 cells cultured were treated with 0.25% trypsin solution to detach cells from the bottom of culture flasks and centrifuged to collect cell pellets. Cells were resuspended in EMEM not containing FBS, its aliquot, 2×10^4 cells/0.3 ml medium was added to each well of 24-well plates and cultured under 7% CO2 for 24 hr at 37° C. 2 ng/ml of the acetyl decapeptide of this invention was serially diluted by two-fold using EMEM containing 0.2 (w/v) % bovine serum albumin and 0.3 ml of the diluted peptide was added to each well, followed by additional culturing under 7% CO2 for 6 hr at 37° C. Afterwards, 0.5 μCi of [^3H]-thymidine (Amersham, TRK 686, 68 Ci/mmol) was added to each well and incubated overnight. […] The dried filters were added along with 2 ml of scintillation cocktail to scintillation vials and allowed to stand for 30 min at room temperature, after which radioactivity incorporated into cells was determined using a scintillation counter (Beckman, U.S.A).

Data set [4] relates to receptor of basic fibroblast growth factor. As to the kind of experiment: competitive binding assay with 125I-labeled bFGF on BHK cells. The following applies: FIG. 3. On the set-up: species or system hamster. How it is done:
To examine the binding potency of the purified acetyl-decapepetide of Example 10 to the receptor of basic fibroblast growth factor, the competitive binding assay was carried out using baby hamster kidney cells (BHK, the Korean Cell Line Bank) and ^125I-labeled bFGF (Amersham) according to process proposed by Baird et al. (Baird, et al., Proc. Natl. Acad. Sci. USA, 85:2324-2328 (1988)). Cells were cultured in 48-well plates for tissue culture and washed with cold Ham's F12 medium containing 0.2% gelatin (Sigma-Aldrich). 200 fmol of ^125I-bFGF and 1-100 nmol of acetyl decapeptide were dissolved in 200 μl of buffer and incubated with cells for 2 hr. Following the collection of cells by centrifugation, the cell membranes were isolated using 0.1% Triton X-100 and the radioactivity of ^125I-bFGF bound to receptors on cell membrane was determined using a gamma scintillation counter (Packard, U.S.A) (FIG. 3).

The subject of data set [5] is HaCaT keratinocytes. Briefly: SRB colorimetric assay of HaCaT keratinocyte growth. The format is cell-based, human. The following applies: 10 ng/ml or 1,000 ng/ml, 72 hr, FIGS. 6 and 7. How it is done: To analyze effects of peptides of this invention on proliferation of keratinocytes, SRB (Sulforhodamine B) calorimetric assay was carried out using HaCaT kerationcyte according to Rizzino et al method (Rizzino, et al. Cancer Res., 48:4266 (1988)). HaCaT ketatinocytes (The Korean Cell Line Bank) were cultured in 250 ml-flasks containing EMEM (Eagle's minimal essential media, Gibco, U.S.A.) supplemented with […] (fetal bovine serum). HaCaT ketatinocytes cultured were treated with 0.25% trypsin solution to detach cells from the bottom of culture flasks and centrifuged to collect cell pellets. Cells were resuspended in EMEM not containing FBS, its aliquot (4×10^3) cells was added to each well of 96-well plates and cultured under 7% CO2 for 24 hr at 37° C. After 24-hr culture, the medium was changed with a fresh medium not containing serum and cells were incubated with bFGF or the acetyl-decapeptide of Example 10 (10 ng/ml or 1,000 ng/ml) dissolved in 10% DMSO for 72 hr under the same conditions as described above. After removing supernatants, cells were washed once using PBS (phosphate buffered saline) and incubated with SRB solution (Sigma-Aldrich). Cells were washed with PBS and observed under a microscope to find cell viability. In addition, absorbance at 590 nm was measured to analyze cell proliferation (FIG. 6). […]
In general terms: In SRB staining, fixed cells bind dye roughly in proportion to their protein.

Data set [6] has as its system laminin. Briefly: laminin level in HaCaT cells (Laminin ELISA kit). The following applies: 1 μmole, FIG. 9. It is filed as cell-based, human. The method, then: as §1
Data set [7] deals with NIH-3T3 cell. As to the kind of experiment: stability in 50 mM Tris-HCl at 37° C., residual activity by MTT assay. The format is physicochemical. The following applies: 50 mM Tris-HCl pH 8.0, 37° C., days 0-100, relative to day 0, FIG. 5. The method, then: To evaluate stability of the purified acetyl decapeptide of Example 10, the decapeptide and acetyl decapeptide were dissolved in 50 mM Tris-HCl (pH 8.0) to a concentration of 10 μg/ml. A recombinant bFGF produced E. coli (Sigma-Aldrich) was prepared as a control in the same buffer to a concentration of 1 μg/ml. The prepared solutions were introduced into glass vials and kept to stand at 37° C. Afterwards, the solutions were taken on days 0, 1, 10, 25, 50, 75 and 100 and subjected to MTT assay (Scudiero, D. A., et al. Cancer Res. 48:4827-4833 (1988)) using NIH-3T3 cell (Korean Cell Line Bank) to determine residual activities of peptides and bFGF (FIG. 5). The results were given as relative values to the activity (100%) of sample taken on day 0.

Data set [8] deals with procollagen. Briefly: procollagen level in HaCaT cells (Procollagen ELISA kit). It is filed as cell-based, human. The following applies: 1 μg/ml, FIG. 8. The method, then:
as §1

As for `C[C@]12CCC(=O)C[C@@H]1CC[C@@H]1[C@@H]2CC[C@]2(C)[C@@H](O)CC[C@@H]12` [DHT, dihydrotestosterone], in data set [1], the hair growth entry was “hair growth was barely observed”.
Regarding Ac-YRSRKYTSWY-OH [acetyl decapeptide], the “level of hyaluronic acid” value in data set [2] is “induce the elevation of levels of laminin and hyaluronic acid”. Moreover, the “[3H]-thymidine incorporation into fibroblasts” value in data set [3] is recorded as “promotes thymidine incorporation into fibroblasts in a dose-dependent fashion”. Moreover, the “binding to bFGF receptor in competition with 125I-bFGF” value in data set [4] (200 fmol 125I-bFGF, 1-100 nmol peptide, 2 hr) is listed as “binds to bFGF receptor in a competitive manner with bFGF”. Further, the “binding potency to bFGF receptor” value in data set [4] is given as “higher binding potency”. Moreover, in data set [5], the “cell viability / proliferation of HaCaT keratinocytes” value was “much higher cell viability than control”. In addition, in data set [6], the level of laminin result is “induce the elevation of levels of laminin and hyaluronic acid”. Besides, the “residual activity over time (stability)” value in data set [7] is recorded as “excellent stability”. For the same compound, the “level of procollagen in cells” value in data set [8] is listed as “increased in a time-dependent manner”.
Turning to “decapeptide: unprotected bFGF-derived decapeptide, presumably the amino acid sequence of SEQ ID NO:1 (YRSRKYTSWY) (peptide having functions and actions of basic fibroblast growth factor)”, the “residual activity over time (stability)” value in data set [7] is “not to be decreased over time”.
The same measure, in the same setting: to “recombinant bFGF: recombinant bFGF produced E. coli (Sigma-Aldrich), prepared as a control” belongs “sharply decreased with the lapse of time”.

The values above are taken from patent publication US7939495B2, “Method for improving skin conditions” (Caregen Co., Ltd, priority 2005, dated 2011).
